Values after ≈ are worked out from the molar mass of the structure shown. “Also recorded” adds a separate entry of the source. Like-named read-outs stand apart in the source and are kept apart here.

Series [1] has as its system C. neoformans. Kind of series: Growth inhibition assay (Bioscreen C, 2-fold dilution series, plating for fungicidal vs fungistatic) in C. neoformans. In kind it is cell-based, Cryptococcus neoformans H99. To be noted: for antifungal activity (in words): dose-response; for fungicidal activity, lowest concentration: plated after 72 h, 24 h recovery at 30° on Sabouraud agar. As for the experimental part:
Primary screen and dose-response of selected candidates. To identify antifungal candidates in the MMV Malaria Box, the inventors initially casted the widest possible net. Growth inhibition assays were done using the Bioscreen C™ with constant agitation, in rich media and physiological relevant temperature of 37° to test the 400 antimalarial compounds against C. neoformans. […] To examine whether or not each dose was fungicidal or just fungistatic, the inventors plated a sample of each dilution after 72 hours. They were allowed to grow at the optimal growth temperature of 30° for 24 hours on Sabouraud rich agar plates and colonies were examined for growth. […]
(§1) Strains. H99 (Serotype A) is a well-characterized wild type laboratory reference strain of Cryptococcus neoformans (22). H99 was selected because it is a virulent strain widely by the field. Cryptococcus gattii strain R265 is used as the primary reference strain to which the genome is based (ATCC MYA-4093). This strain was isolated from the Vancouver Island (British Columbia, Canada) outbreak of 2004 (23, 24). H99 and R265 were maintained in Sabouraud (Sab) dextrose broth at 30° C. with constant 200 RPM agitation. One day prior to each experimental drug treatment, Sab broth was inoculated from glycerol stock and grown overnight to log phase before washing with PBS and resuspending in fresh Sab broth prior to treatment.
(§2) Compound library. 400 compounds were made available by the Medicines for Malaria Venture (Geneva, Switzerland) in the form of the open-access MMV Malaria Box. Compounds were stored at −80° C. in 100% DMSO at a concentration of 10 mM. Before usage, compounds were thawed at room temperature and thoroughly mixed. Compounds were diluted in 2-fold series 10 mM down to […] with DMSO before subsequent growth inhibition assays. Growth inhibition assays. The effectiveness of these MMV Malaria Box compounds against C. neoformans was measured by turbidity over time. The Bioscreen C™ (Growth Curves USA, Piscataway, N.J.) allows us to analyze ˜60 compounds at a time in triplicate with constant temperature and agitation. Assays were measured at 420-580 nm, wideband range every 15′ for 72 h at 37° C. to simulate physiologically relevant temperatures. Wideband is generally used for turbidity measurements, as it is mostly insensitive to changes in color. […] We inoculated 5×10^3 H99 C. neoformans and SC5314 C. albicans in 200 μl of Sabouraud dextrose broth in each of the honeycomb (HC-2) plate's 100 wells. A two-fold dilution series of each compound from 50 μM down to 0.39 μM final concentration were tested for effects against C. neoformans. To qualitatively differentiate fungistatic and fungicidal activity, 5 μl of each well after 72 h were spotted on Sabouraud dextrose agar rich media plates and allowed to grow at the optimal temperature 30° C. to induce a full recovery of viable yeast. Spots were noted after 24 h to identify fungicidal versus fungistatic concentrations of each compound. […] Mammalian cell viability and toxicity assays.

The test system of series [2] is human fibroblast. Kind of series: Toxicity against human fibroblast. Type of series: cell-based. The source says: XlogP values are derived from PubChem and describe the lipophilicity of the molecule. The topological polar surface area (tPSA) is a metric for predicting cell penetration, with values <140 to be favorable. […] Toxicity against human fibroblast was used to calculate the therapeutic index TI.

The subject of series [3] is L. prolificans. The experiment in a line: Growth inhibition assay, 2-fold dilution series, in L. prolificans. In kind it is cell-based, Lomentospora prolificans. The note with it: for MIC: Lomentospora prolificans, after 72 h.
Series [4] has as its system C. neoformans. Kind of series: Imaging flow cytometry (Amnis ImageStream) of DM262 treated C. neoformans. Type of series: cell-based, Cryptococcus neoformans.
In series [5] the test system is C. gattii. Kind of series: Growth inhibition assay, 2-fold dilution series, in C. gattii. Type of series: cell-based, Cryptococcus gattii R265. To be noted: for MIC: Cryptococcus gattii, after 72 h. As for the experimental part:
as §1, §2

Series [6] has as its system C. albicans. Kind of series: Growth inhibition assay, 2-fold dilution series, in C. albicans. Type of series: cell-based, Candida albicans SC5314. The note with it: for MIC: Candida albicans, after 72 h. How it is done:
as §2

The subject of series [7] is murine bone marrow derived macrophages (BMDM). The experiment in a line: Mammalian cell viability, MTT assay in BMDM. In kind it is cell-based.
For series [8] the test system is unchanged. Kind of series: Mammalian cell lysis, LDH release assay in BMDM. Type of series: cell-based.
Setting [9] is: 72 h drug exposure in liquid culture, then recovery on agar plates overnight.
Where [10] appears, read: Cryptococcus neoformans, C. neoformans, after 72 h, read-out: MIC.
Setting [11] is: highest concentration studied 50 μM.

In series [1] (setting [9]), `Cc1ccc(Nc2nc(-c3ccccn3)cs2)cc1` [Compound 64] came in with an MIC of 1.6 µg/mL. Further, the “antifungal activity (in words)” value in series [1] (C. neoformans) is given as “low activity”.

`O=C(Nc1cccc(C(F)(F)F)c1)c1cc(Cl)ccc1O` [Compound 155] yielded an MIC in series [1] (setting [9]) of 0.5 µg/mL. In addition, in series [1] (C. neoformans), the “fold more effective than fluconazole (fungicidal activity)” value is 8 fold and the “fungicidal activity, lowest concentration” value stood at 3.12 µM. This compound returned a Toxicity human fibroblast in series [2] of 0.024 µM.

For the compound `Cc1ccc2cc3c(N)c4c(C)ccc(C)c4nc3nc2c1` [Compound 253], the MIC in series [1] (setting [9]) was 7.2 µg/mL. In addition, in series [1] (C. neoformans), the “antifungal activity (in words)” value is recorded as “low activity”. The Toxicity human fibroblast in series [2] is 11.4 µM.

In series [1] (setting [9]), `Cc1ccc2c(c1)c1cc(C)ccc1n2CC(O)CNC1CCCCC1` (centres unmarked) [Compound 380] registered an MIC of 0.9 µg/mL. For the same compound, in series [1] (C. neoformans), the “fold more effective than fluconazole (fungicidal activity)” value is 8 fold and the “fungicidal activity, lowest concentration” value came to 3.12 µM. For the same compound, the Toxicity human fibroblast in series [2] was 4.03 µM.

Take `Nc1ccc(-c2nc3ccc(Cc4ccc5nc(C6CCC(N)CC6)[nH]c5c4)cc3[nH]2)cc1` (centres unmarked) [DM262]: the MIC is 0.3 µg/mL in series [1] (setting [9]); 0.8 µM in series [1] (setting [10]); 6.3 µM (≈ 2.75 µg/mL) in series [3]; 50 µM (≈ 21.8 µg/mL) in series [5]; 0.8 µM (≈ 0.349 µg/mL) in series [6]. For the same compound, the “fold more effective than fluconazole (fungicidal activity)” value in series [1] (C. neoformans) came out at 16 fold. For the same compound, in series [1] (C. neoformans), the “fold more effective than fluconazole (fungistatic activity)” value is listed as 32 fold. Also, the “fungistatic activity, lowest concentration” value in series [1] (C. neoformans, 72 h) is 0.8 µM. The “fungicidal activity, lowest concentration” value in series [1] (C. neoformans) turned out to be 1.56 µM. Further, the “concentration at which cells were dramatically trending towards apoptosis (apoptotic index, IDEAS 6.2)” value in series [4] (24 h treatment, morphology of the nucleus) amounted to 6.25 µM. The “effect on average size of the cells” value in series [4] (brightfield, ImageStream) is “No significant change; also recorded: no effect”. Also, in series [5], the “concentration giving significant delay in growth” value was ≥ 12.5 µM. Besides, the “time until log phase is reached” value in series [5] (12.5 μM treatment, growth curves) is “approximately 48 h”. For the same compound, the “concentration with minimal variance from DMSO vehicle control” value is given as “up to 12.5 μM” in series [7] (BMDM) and “up to 12.5 μM” in series [8] (BMDM, LDH). For the same compound, the LD50 amounted to 50 µM in series [7] (BMDM viability) and 50 µM in series [8] (BMDM cell lysis, LDH release). The Toxicity human fibroblast in series [2] was determined as 11.4 µM.

On to `OC(Cn1cncn1)(Cn1cncn1)c1ccc(F)cc1F` [Fluconazole], for which the MIC in series [1] (setting [9]) is 7.6 µg/mL; in series [1] (setting [10]), 25 µM; in series [3] it was > 50 µM; in series [5] it was 50 µM (≈ 15.3 µg/mL); in series [6] it was > 50 µM. Also, the fungicidal concentration in series [3] (setting [11]) and in series [6] (setting [11]) was > 50 µM in each case. Also, the “response in growth inhibition assay (in words)” value in series [3] (up to the highest concentration tested, 50 μM) is reported as “complete resistance”. The “concentration at which growth was unaffected” value in series [5] was ≤ 6.3 µM. Moreover, the “effect on final OD420-580 (in words)” value in series [6] is “only slight decrease”.

The record behind these values is US11246857B2, “Anti-fungal inhibitors” (THE JOHNS HOPKINS UNIVERSITY, priority 2017, dated 2022).
